EP0429304A2, “Pyridone-carboxylic acid derivatives and their use as veterinary medicines” (SHIONOGI SEIYAKU KABUSHIKI KAISHA trading under the name of …, priority 1989, dated 1991)
Like-named read-outs stand apart in the source and are kept apart here.

Test system: TS-resistant strain of MG
Type: in vivo, chicken
Conditions: 9-days chicken; for Infectious index Left air sack + / Infectious index Left air sack ++ / Infectious index Left air sack +++ / Infectious index Left air sack - / Infectious index Right air sack + / Infectious index Right air sack ++ / Infectious index Right air sack +++ / Infectious index Right air sack -: count of fowl; for Infectious index Left air sack + / Infectious index Left air sack ++ / Infectious index Left air sack +++ / Infectious index Left air sack - / Infectious index Right air sack + / Infectious index Right air sack ++ / Infectious index Right air sack +++ / Infectious index Right air sack - / Number of fowl having air sack lesions: 1.7 x 10³ CFU/fowl; for Number of infected fowl/Number of fowl tested: 3.5 x 10³ CFU/fowl

Cl.Nc1c(F)c(N2C[C@@H]3CC[C@@H](N)[C@@H]3C2)c(F)c2c1c(=O)c(C(=O)O)cn2C1CC1 (relative stereo) [I-16]
Infectious index Left air sack + (oral 6.25 mg/kg): 0
Infectious index Left air sack ++ (oral 6.25 mg/kg): 0
Infectious index Left air sack +++ (oral 6.25 mg/kg): 0
Infectious index Left air sack - (oral 6.25 mg/kg): 4
Infectious index Right air sack + (oral 6.25 mg/kg): 0
Infectious index Right air sack ++ (oral 6.25 mg/kg): 3
Infectious index Right air sack +++ (oral 6.25 mg/kg): 0
Infectious index Right air sack - (oral 6.25 mg/kg): 1
Infectious index Left air sack + (oral 12.5 mg/kg): 0
Infectious index Left air sack ++ (oral 12.5 mg/kg): 0
Infectious index Left air sack +++ (oral 12.5 mg/kg): 0
Infectious index Left air sack - (oral 12.5 mg/kg): 5
Infectious index Right air sack + (oral 12.5 mg/kg): 0
Infectious index Right air sack ++ (oral 12.5 mg/kg): 0
Infectious index Right air sack +++ (oral 12.5 mg/kg): 0
Infectious index Right air sack - (oral 12.5 mg/kg): 5
Infectious index Left air sack + (oral 25.0 mg/kg): 0
Infectious index Left air sack ++ (oral 25.0 mg/kg): 0
Infectious index Left air sack +++ (oral 25.0 mg/kg): 0
Infectious index Left air sack - (oral 25.0 mg/kg): 5
Infectious index Right air sack + (oral 25.0 mg/kg): 0
Infectious index Right air sack ++ (oral 25.0 mg/kg): 0
Infectious index Right air sack +++ (oral 25.0 mg/kg): 0
Infectious index Right air sack - (oral 25.0 mg/kg): 5
Number of infected fowl/Number of fowl tested (oral 1.56 mg/kg): 5/5
Number of infected fowl/Number of fowl tested (oral 3.13 mg/kg): 2/5
Number of fowl having air sack lesions (oral 6.25 mg/kg): 3
Number of infected fowl/Number of fowl tested (oral 6.25 mg/kg): 2/5
Number of fowl having air sack lesions (oral 12.5 mg/kg): 0
Number of fowl having air sack lesions (oral 25.0 mg/kg): 0
